One test has as its target T1, full-length huNur77 (Homo sapiens, UniProt P22736).
T1 construct: purchased Abcam, Cambridge, MA
The test is described as follows: Binding to full-length huNur77 (x3C). The note with it: 333 ng/well labelled peptide. As to the method:
400 ng/well recombinant Nur77 (Abcam, Cambridge, MA) was adsorbed to wells of a 96-well plate for 90 minutes at RT, then blocked with 200 uL 1% BSA in PBS buffer overnight. Plate was washed and 333 ng/well Streptavidin-Alexa 488 conjugate (SA488)-labelled IM3, IM4 or no peptide was added. The plate was incubated for 60 min at room temperature, washed and counted in a standard fluorometer (excitation/emission 485/525 nm). Background (buffer alone) was subtracted.

For a further test, the system named is rat scald model. The test is described as follows: Rat scald model, nephrilin plus or minus metal (x5A). The test is classed as in vivo, Sprague Dawley rats. The note with it: male rats, burn, 4 mg/kg sc once daily days 1-7. As to the method:
Experiment x5A. Nephrilin peptide (IM3N1) is a designed inhibitor of Rictor complex (also known as mTORC2), an evolutionarily conserved assembly believed to modulate responses to cellular stress. […] This study explores the effect of nephrilin plus iron formulations on clinically relevant outcomes in the rat scald model. Animals were treated with nephrilin by subcutaneous bolus injection on days 1-7 post-burn. Equimolar ferric iron in the formulation improved the positive systemic effects of nephrilin on kidney function, glycemic control, oxidative stress, early hyperinflammation, late inflammasome activation, hyperangiogenesis and body mass, all variables previously shown to bear upon clinically relevant burn injury outcomes. The rat scald model and measurement of clinically relevant variables are disclosed in U.S. Pat. No. 10,369,191. Adult Sprague Dawley rats of both sexes (250-300 gm, Charles River Laboratories, Wilmington, MA, USA) were injected with nephrilin peptide plus or minus equimolar metal (zinc, ferrous iron or ferric iron) once daily by subcutaneous bolus injection, days 1-7; Treatment group sizes were (n=8) for each sex unless otherwise indicated: group S=sham-treated; group B=burn+vehicle; group N1=burn+4 mg/kg nephrilin; group N1/Zn2=burn+4 mg/kg nephrilin/zinc chloride; group N1/Fe2=burn+4 mg/kg nephrilin/ferrous sulphate; groups N1/Fe3 (2, 4 or 8)=burn+2, 4, or 8 mg/kg nephrilin/equimolar ferric chloride. The first dose was administered after completion of the scald procedure. Injection volume was 400 uL. Control animals received the same volume of vehicle.
To make global comparisons of treatment efficacy, we converted values to z-scores. All scores within an efficacy class were averaged, allowing allocation of equal weight to efficacy classes. A composite z-score (average z score across all 7 effect classes) is shown in the last row of the table. This allows direct comparison of efficacy across treatment groups. The sham treatment involves manipulating the animals exactly as in the burn group, but without the burn treatment. The efficacy value for the sham (0.82) is thus the positive control. The negative control is the Burn+vehicle group (−0.61). […] Compared to vehicle or nephrilin treatment alone (−0.31), nephrilin with ferric iron (0.27) is at least twice as efficacious overall. Male rats in the scald model were exposed to vehicle, 2, 4 and 8 mg/kg nephrilin complexed with ferric iron.

Another test has as its system burn wound length. The test is described as follows: Post-burn wound healing study (x8A). The test is classed as in vivo, rats. The conditions noted are these: burn-group treatment as labelled (4 mg/kg), then vehicle weeks 2-6. As to the method:
Experiment x8A. Male rats treated with 4 mg/kg nephrilin peptide IM3N1 for 2 weeks in Example 5 were subsequently treated 3× weekly (Mon-Wed-Fri) for 4 weeks with vehicle (n=12) or with 1 mg/kg IM3vlp peptide (n=12) by subcutaneous bolus injection (200 uL volume). Longitudinal wound length between the hairlines was measured at 6 weeks, and this value was corrected for nose-to-ear length and width of each animal. The mean resulting value (in arbitrary units) is shown below.

Peptide text beside a SMILES is read from it.

These results are taken from US12102685B2, “Immodulator peptides covalently modified with small molecules” (priority 2020, dated 2024).

T1 sequence (P22736 whole entry): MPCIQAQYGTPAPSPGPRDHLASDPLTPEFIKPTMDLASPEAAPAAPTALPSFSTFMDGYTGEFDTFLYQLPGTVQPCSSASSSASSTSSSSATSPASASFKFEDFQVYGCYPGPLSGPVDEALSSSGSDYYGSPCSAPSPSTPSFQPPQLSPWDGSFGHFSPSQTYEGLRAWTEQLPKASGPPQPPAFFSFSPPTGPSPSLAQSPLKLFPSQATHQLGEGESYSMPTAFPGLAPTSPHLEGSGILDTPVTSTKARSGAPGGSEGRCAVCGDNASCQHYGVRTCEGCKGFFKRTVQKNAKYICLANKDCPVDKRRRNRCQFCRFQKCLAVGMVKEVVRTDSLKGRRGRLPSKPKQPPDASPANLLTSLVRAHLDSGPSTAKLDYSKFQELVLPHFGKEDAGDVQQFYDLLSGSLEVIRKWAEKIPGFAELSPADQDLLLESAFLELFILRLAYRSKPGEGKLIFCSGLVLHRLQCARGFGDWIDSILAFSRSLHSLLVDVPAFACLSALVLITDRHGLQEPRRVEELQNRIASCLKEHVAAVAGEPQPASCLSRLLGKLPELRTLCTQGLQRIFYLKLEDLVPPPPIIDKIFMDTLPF

Regarding `CC(C)C[C@H](NC(=O)[C@H](C)NC(=O)[C@@H]1CCCN1C(=O)[C@H](Cc1c[nH]cn1)NC(=O)[C@H](CS)NC(=O)[C@H](CCC(N)=O)NC(=O)[C@H](CCCCN)NC(=O)[C@@H]1CCCN1C(=O)[C@H](Cc1c[nH]cn1)NC(=O)[C@H](Cc1ccccc1)NC(=O)[C@H](CC(N)=O)NC(=O)CNC(=O)[C@H](CC(N)=O)NC(=O)[C@@H](N)CCCNC(=N)N)C(=O)N[C@@H](CC(=O)O)C(=O)NCC(=O)N[C@@H](CCC(N)=O)C(=O)N[C@@H](CCCNC(=N)N)C(=O)NCC(=O)N[C@@H](CCCCN)C(=O)N[C@@H](CS)C(=O)N[C@@H](Cc1c[nH]c2ccccc12)C(=O)O` [IM4] (H-RNGNFHPKQCHPALDGQRGKCW-OH; N-terminus and C-terminus assumed), the fluorescence is 70 ± 48 at full-length huNur77 (Nur77 400 ng/well) and 112 ± 24 on full-length huNur77 (no Nur77 adsorbed).
Regarding “RGVTEDYLRLETLVQKVVSKGFYKKKQCRPSKGRKRGFCW [IM3N1]”, in the test with rat scald model, the “1: early inflammation (24-hr plasma IL-6)” value is 50.6 ± 6.1 pg/mL, the “2a: 14-day plasma inflammasome marker IL18” value turned out to be 178.1 ± 19.3 pg/mL, the “2b: 14-day plasma inflammasome marker IL1b” value turned out to be 124.3 ± 132 pg/mL and the “3a: 14-day plasma hyperangiogenesis marker VEGF-A” value is 56.1 ± 11.7 pg/mL. Moreover, in the test on rat scald model, the “3b: 14-day plasma hyperangiogenesis marker CCL5” value is 609.7 ± 283 pg/mL; the “3c: 14-day plasma hyperangiogenesis marker CXCL5” value turned out to be 1910 ± 380 pg/mL; the “4: glycemic control, 14-day GTT (AUC)” value came to 139.3 ± 48.6 mg·dL·h; the “5: kidney function, 14-day plasma creatinine” value turned out to be 0.34 ± 0.13 mg/dL. Further, in the test with rat scald model, the “6: systemic oxidative stress, 14-day plasma OHDG” value was found to be 585 ± 137 pg/mL; the “7: weight loss (slope)” value came out at 2.32 ± 1.01; the “3d: hyperangiogenesis marker PctRedPix” value is recorded as 16.51 ± 3.02. The “Avg: composite z-score (average z score across all 7 effect classes)” value in the test on rat scald model (listed as N1, 4 mg/kg) was −0.31 ± 0.35. Further, the “Avg: composite z-score (average z score across all 7 effect classes)” value with rat scald model (listed as nephrilin, 4 mg/kg) was −0.31. Further, the “corrected longitudinal wound length at 6 weeks” value in the test on burn wound length is recorded as 131.3 ± 18.6 arbitrary units.
For the compound `N=C(N)NCCC[C@H](NC(=O)CNC(=O)[C@H](CCCCN)NC(=O)[C@H](CO)NC(=O)[C@@H]1CCCN1C(=O)[C@H](CCCNC(=N)N)NC(=O)[C@H](CS)NC(=O)[C@H](CCC(N)=O)NC(=O)[C@H](CCCCN)NC(=O)[C@H](CCCCN)NC(=O)[C@H](CCCCN)NC(=O)[C@H](Cc1ccc(O)cc1)NC(=O)[C@H](Cc1ccccc1)NC(=O)CNC(=O)[C@H](CCCCN)NC(=O)[C@@H](N)CCCCN)C(=O)N[C@@H](CCCCN)C(=O)N[C@@H](CCCNC(=N)N)C(=O)NCC(=O)N[C@@H](Cc1ccccc1)C(=O)N[C@@H](CS)C(=O)N[C@@H](Cc1c[nH]c2ccccc12)C(=O)O` [IM3] (H-KKGFYKKKQCRPSKGRKRGFCW-OH; N-terminus and C-terminus assumed), the fluorescence on full-length huNur77 (Nur77 400 ng/well) is listed as 488 ± 38; on full-length huNur77 (no Nur77 adsorbed), 59 ± 17.
